According to publication PMC10999543, “Identification of kinase modulators as host-directed therapeutics against intracellular methicillin-resistant Staphylococcus aureus” (Frontiers in Cellular and Infection Microbiology, 2024):
Read-outs that look alike come from different tables or passages of the source.

Assays:
[1] = test system: intracellular MRSA; type: cell-based, Staphylococcus aureus; settings: for %GFP+ rep 1 / z-scoreMRSA+ rep 1: replicate 1; for %GFP+ rep 2 / z-scoreMRSA+ rep 2: replicate 2; for %GFP+ rep 3 / z-scoreMRSA+ rep 3: replicate 3; for z-scoreMRSA+ mean: mean of 3 replicates; for z-score GFP+: flow cytometry screen, 10 µM, HeLa cells
In short: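 HeLa, MRSA-GFP at MOI ~6.8, 1 h infection; gentamicin 30 µg/ml for 15 min; inhibitor plus gentamicin 5 µg/ml overnight, 37°C/5% CO2; triplicate plates; FACS %GFP+ and cell count; hit = z ≤ -2 MRSA+, z ≥ -3 count.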

[2] = test system: HeLa cells; assay: Compound screen by flow cytometry: HeLa cell count as surrogate readout of cell viability (z-scoreHeLa); type: cell-based, human; settings: for cell count rep 1 / z-scoreHeLa rep 1: replicate 1; for cell count rep 2 / z-scoreHeLa rep 2: replicate 2; for cell count rep 3 / z-scoreHeLa rep 3: replicate 3; for z-scoreHeLa mean: mean of 3 replicates
In short: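 HeLa cells were infected with GFP-MRSA (mean MOI 6.8 ± 4.6) for 1 h, and extracellular bacteria were killed with 30 µg/ml gentamicin. Cells were then incubated overnight with kinase inhibitors in 5 µg/ml gentamicin, in triplicate against DMSO controls. Flow-cytometric cell count served as a viability surrogate, expressed as a plate z-score.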

[3] = test system: EGFR; design: method as in Elkins et al., 2016; settings: PKIS1, Caliper assay, ref Elkins et al., 2016; cited from earlier work
[4] = test system: HER2; design: method as in Elkins et al., 2016; settings: PKIS1, Caliper assay, ref Elkins et al., 2016; cited from earlier work
[5] = test system: HER4; design: method as in Elkins et al., 2016; settings: PKIS1, Caliper assay, ref Elkins et al., 2016; cited from earlier work
[6] = test system: intracellular MRSA in HeLa cells; assay: Gentamicin protection assay with CFU count in MRSA-infected HeLa cells; type: cell-based, Staphylococcus aureus; settings: for CFU (% of DMSO) at 10 µM: MRSA-infected HeLa cells
Experimental: The cells were resuspended in cell culture medium without antibiotics, seeded with 10,000 cells/well into Costar flat-bottom 96-well plates (Corning, Amsterdam, the Netherlands), and were incubated overnight at 37°C/5% CO2. The next day, the bacteria were centrifuged at ≥1800 g for 15 min and resuspended in cold PBS + 5 mM ethylenediaminetetraacetic acid (EDTA). The number of CFUs present in the bacterial suspension was estimated from the optical density at 600 nm (OD600) by assuming 8x10^8 CFUs to be present in a bacterial suspension with OD600 = 1, based on prior titrations. The bacterial suspension was diluted in cell culture medium without antibiotics and added to the cells. Accuracy of the multiplicity of infection (MOI) was validated by plating serial dilutions of the MRSA inoculums on Difco TS agar plates (BD Biosciences). The calculated mean MOI throughout all experiments was 6.8 ± 4.6 (mean ± SD). Infected cells were centrifuged for 3 min at 150 g and incubated for 1 hour at 37°C/5% CO2. Next, the cells were incubated with fresh cell culture medium supplemented with 30 µg/ml gentamicin sulphate (Lonza BioWhittaker, Basel, Switzerland) for 15 min at 37°C/5% CO2 to kill residual extracellular bacteria. Infected cells were incubated overnight at 37°C/5% CO2 in cell culture medium in the presence of kinase inhibitors and 5 µg/ml gentamicin sulphate-containing medium to prevent the growth of extracellular bacteria. The solvent of the compounds, DMSO, was used at equal % v/v as a negative control. For the screen, each compound was tested in triplicate, on separate cell culture plates, resulting in triplicate values for each kinase inhibitor.
Infected cells were lysed in sterile water + 0.05% UltraPure SDS solution (Invitrogen, ThermoFisher Scientific) to release intracellular bacteria. Bacterial suspensions and lysates of cells infected with MRSA were 5-fold serially diluted and 10-μl drops were plated on square TS agar plates. The plates were left to dry and incubated overnight at 37°C/5% CO2.

[7] = PKIS compounds raw data, MRSA-infected HeLa cells
[8] = Yes/No: effect without cell death
[9] = compound screen, MRSA-infected HeLa cells
[10] = PKIS compounds raw data, HeLa cell count
[11] = compound screen, HeLa cell count
[12] = PKIS compound screen raw data, MRSA-infected HeLa cells
[13] = PKIS compound screen, MRSA-infected HeLa cells
[14] = PKIS compound screen, Yes/No call (effect without cell death)
[15] = PKIS compound screen, Yes/No call on z-scoreMRSA+
[16] = PKIS compound screen raw data, HeLa cell count
[17] = PKIS compound screen, HeLa cell count
[18] = PKIS compound screen, Yes/No call on z-scoreHeLa
[19] = PKIS compound screen, Yes/No call

## O=S(=O)(CCOCc1ccc(-c2ccc3ncnc(Nc4ccc(OCc5cccc(F)c5)c(Cl)c4)c3c2)o1)c1ccccc1 [GW615311X]
[1]; [7]
  %GFP+ rep 1: 14.3%
  %GFP+ rep 2: 12.7%
  %GFP+ rep 3: 13.9%
[1]; Yes/No call from z-scoreMRSA+
  effect: No
[1]; [8]
  hit: No
[1]; [9]
  z-scoreMRSA+ mean: -0.16
  z-scoreMRSA+ rep 1: 0.36
  z-scoreMRSA+ rep 2: -0.27
  z-scoreMRSA+ rep 3: -0.59
[2]; [10]
  cell count rep 1: 4217
  cell count rep 2: 4665
  cell count rep 3: 7934
[2]; Yes/No call from z-scoreHeLa
  cell death: No
[2]; [11]
  z-scoreHeLa mean: 0.09
  z-scoreHeLa rep 1: -0.51
  z-scoreHeLa rep 2: 0.30
  z-scoreHeLa rep 3: 0.47
[3]
  % inhibition at 1 µM EGFR: 85%
[4]
  % inhibition at 1 µM HER2: 70%
[5]
  % inhibition at 1 µM HER4: 73%

## CS(=O)(=O)CCN(CC#N)Cc1ccc(-c2ccc3ncnc(Nc4ccc(OCc5cccc(F)c5)c(Cl)c4)c3c2)o1 [GW616030X]
[1]; [7]
  %GFP+ rep 1: 7.5%
  %GFP+ rep 2: 7.4%
  %GFP+ rep 3: 6.2%
[1]; Yes/No call from z-scoreMRSA+
  effect: Yes
[1]; [8]
  hit: Yes
[1]; [9]
  z-scoreMRSA+ mean: -2.24
  z-scoreMRSA+ rep 1: -1.82
  z-scoreMRSA+ rep 2: -2.03
  z-scoreMRSA+ rep 3: -2.88
[2]; [10]
  cell count rep 1: 2826
  cell count rep 2: 3932
  cell count rep 3: 5918
[2]; Yes/No call from z-scoreHeLa
  cell death: No
[2]; [11]
  z-scoreHeLa mean: -0.84
  z-scoreHeLa rep 1: -1.76
  z-scoreHeLa rep 2: -0.25
  z-scoreHeLa rep 3: -0.50
[6]
  CFU (% of DMSO) at 10 µM: 50.3 % of DMSO
[3]
  % inhibition at 1 µM EGFR: 77%
[4]
  % inhibition at 1 µM HER2: 67%
[5]
  % inhibition at 1 µM HER4: 74%

## [O-][S+]1CCN(Cc2ccc(-c3ccc4ncnc(Nc5ccc(OCc6cccc(F)c6)c(Cl)c5)c4c3)o2)CC1 [GW576609A]
[1]; [12]
  %GFP+ rep 1: 13.3%
  %GFP+ rep 2: 14.3%
  %GFP+ rep 3: 14.3%
[1]; [13]
  z-scoreMRSA+ mean: -1.46
  z-scoreMRSA+ rep 1: -1.45
  z-scoreMRSA+ rep 2: -1.27
  z-scoreMRSA+ rep 3: -1.67
[1]; [14]
  hit: No
[1]; [15]
  effect: No
[2]; [16]
  cell count rep 1: 27921
  cell count rep 2: 36007
  cell count rep 3: 40876
[2]; [17]
  z-scoreHeLa mean: 0.49
  z-scoreHeLa rep 1: 1.18
  z-scoreHeLa rep 2: 0.23
  z-scoreHeLa rep 3: 0.0554
[2]; [18]
  cell death: No
[3]
  % inhibition at 1 µM EGFR: 84%
[4]
  % inhibition at 1 µM HER2: 80%
[5]
  % inhibition at 1 µM HER4: 91%

## [O-][S+]1CCN(Cc2ccc(-c3ccc4ncnc(Nc5ccc(OCc6ccccc6)c(Cl)c5)c4c3)o2)CC1 [GW583373A]
[1]; [19]
  effect: No
[1]; [14]
  hit: No
[1]; PKIS compound screen
  z-scoreMRSA+ mean: -1.31
  z-scoreMRSA+ rep 1: -1.43
  z-scoreMRSA+ rep 2: -1.26
  z-scoreMRSA+ rep 3: -1.26
[1]; [7]
  %GFP+ rep 1: 19.7%
  %GFP+ rep 2: 19.5%
  %GFP+ rep 3: 20.5%
[2]; [19]
  cell death: No
[2]; PKIS compound screen
  z-scoreHeLa mean: 1.46
  z-scoreHeLa rep 1: 1.65
  z-scoreHeLa rep 2: 1.30
  z-scoreHeLa rep 3: 1.44
[2]; [10]
  cell count rep 1: 8794
  cell count rep 2: 7971
  cell count rep 3: 7863
[4]
  % inhibition at 1 µM HER2: 73%
[5]
  % inhibition at 1 µM HER4: 84%

## [O-][S+]1CCN(Cc2ccc(-c3ccc4ncnc(Nc5ccc(OCc6ccccc6)c(F)c5)c4c3)o2)CC1 [GW576924A]
[1]; [19]
  effect: Yes
[1]; [14]
  hit: Yes
[1]; PKIS compound screen
  z-scoreMRSA+ mean: -2.35
  z-scoreMRSA+ rep 1: -1.94
  z-scoreMRSA+ rep 2: -2.43
  z-scoreMRSA+ rep 3: -2.70
[1]; [7]
  %GFP+ rep 1: 7.1%
  %GFP+ rep 2: 6.2%
  %GFP+ rep 3: 6.8%
[1]
  z-score GFP+: -2.36
[2]; [19]
  cell death: No
[2]; PKIS compound screen
  z-scoreHeLa mean: -0.58
  z-scoreHeLa rep 1: -1.18
  z-scoreHeLa rep 2: -0.60
  z-scoreHeLa rep 3: 0.0442
[2]; [10]
  cell count rep 1: 3467
  cell count rep 2: 3479
  cell count rep 3: 7054
[6]
  CFU (% of DMSO) at 10 µM: 137.9 % of DMSO
[3]
  % inhibition at 1 µM EGFR: 82%
[4]
  % inhibition at 1 µM HER2: 91%
[5]
  % inhibition at 1 µM HER4: 75%

## CS(=O)(=O)CCNCc1ccc(-c2ccc3ncnc(Nc4ccc(OCc5ccccc5)c(Cl)c4)c3c2)o1 [GW574783B]
[1]; [12]
  %GFP+ rep 1: 11.2%
  %GFP+ rep 2: 11.2%
  %GFP+ rep 3: 14.4%
[1]; [13]
  z-scoreMRSA+ mean: -1.99
  z-scoreMRSA+ rep 1: -2.11
  z-scoreMRSA+ rep 2: -2.20
  z-scoreMRSA+ rep 3: -1.64
[1]; [19]
  effect: Yes
[1]; [14]
  hit: No and Yes
[1]; [15]
  effect: No
[1]; PKIS compound screen
  z-scoreMRSA+ mean: -2.62
  z-scoreMRSA+ rep 1: -2.66
  z-scoreMRSA+ rep 2: -2.54
  z-scoreMRSA+ rep 3: -2.65
[1]; [7]
  %GFP+ rep 1: 13.4%
  %GFP+ rep 2: 12.8%
  %GFP+ rep 3: 13.0%
[1]
  z-score GFP+: -2.30
[2]; [16]
  cell count rep 1: 17891
  cell count rep 2: 35533
  cell count rep 3: 50424
[2]; [17]
  z-scoreHeLa mean: 0.46
  z-scoreHeLa rep 1: -0.34
  z-scoreHeLa rep 2: 0.14
  z-scoreHeLa rep 3: 1.58
[2]; [19]
  cell death: No
[2]; [18]
  cell death: No
[2]; PKIS compound screen
  z-scoreHeLa mean: 1.91
  z-scoreHeLa rep 1: 1.69
  z-scoreHeLa rep 2: 1.91
  z-scoreHeLa rep 3: 2.13
[2]; [10]
  cell count rep 1: 8853
  cell count rep 2: 8889
  cell count rep 3: 8965
[6]
  CFU (% of DMSO) at 10 µM: 53.4 % of DMSO
[3]
  % inhibition at 1 µM EGFR: 91%
[4]
  % inhibition at 1 µM HER2: 75%
[5]
  % inhibition at 1 µM HER4: 89%

## CNC(=O)CN1CCC(Oc2cc3c(Nc4cccc(Cl)c4F)ncnc3cc2OC)CC1 [sapitinib, reference compound]
[6]; tested at different concentrations, Figure 4K
  effect on bacterial burden of MRSA-infected HeLa cells: unable to reduce the bacterial burden

## CS(=O)(=O)CCNCc1ccc(-c2ccc3ncnc(Nc4ccc(OCc5ccccc5)c(Br)c4)c3c2)o1 [GW580496A]
[1]; [7]
  %GFP+ rep 1: 5.4%
  %GFP+ rep 2: 6.0%
  %GFP+ rep 3: 5.1%
[1]; Yes/No call from z-scoreMRSA+
  effect: Yes
[1]; [8]
  hit: Yes
[1]; [9]
  z-scoreMRSA+ mean: -2.73
  z-scoreMRSA+ rep 1: -2.50
  z-scoreMRSA+ rep 2: -2.51
  z-scoreMRSA+ rep 3: -3.18
[2]; [10]
  cell count rep 1: 5658
  cell count rep 2: 6483
  cell count rep 3: 11366
[2]; Yes/No call from z-scoreHeLa
  cell death: No
[2]; [11]
  z-scoreHeLa mean: 1.53
  z-scoreHeLa rep 1: 0.80
  z-scoreHeLa rep 2: 1.67
  z-scoreHeLa rep 3: 2.11
[6]
  CFU (% of DMSO) at 10 µM: 65.3 % of DMSO
[3]
  % inhibition at 1 µM EGFR: 82%
[4]
  % inhibition at 1 µM HER2: 74%
[5]
  % inhibition at 1 µM HER4: 80%
